# Results published in patent US12201707B2, “Nano-emulsion composition for tooth whitening and method for producing the same” (AMOREPACIFIC CORPORATION, priority 2021, dated 2025).
# Test: Tooth whitening test
# Description: Discoloration was induced by immersing 12 hydroxyapatite (HAP) discs in black tea. Subsequently, the four discolored discs were immersed in vials containing each of the nanoemulsion composition of Example 31, a nanoemulsion composition in which oxygen was not captured as a control (control group 1), distilled water as a control (control group 2), and 3% hydrogen peroxide as a control (control group 3), respectively. The lightness values (L values) of the discs were measured on days 0, 2, 4 and 6 using a spectrophotometer. Before each measurement, the discs were completely dried at 55° C. for 1 hour using an oven.
smiles,measurement,setting,value
"OO [Control 3, hydrogen peroxide]",lightness value (L value) of disc,Day 0,72.9
same,lightness value (L value) of disc,Day 2,84.3
same,lightness value (L value) of disc,Day 4,92.96
same,lightness value (L value) of disc,Day 6,97.48
